Measurements reported in PubChem BioAssay AID588401 (Johns Hopkins Ion Channel Center, 2011).
Active and inactive are the calls of the source.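 Rule for the calls: active = blocks the choline transporter at some tested dose and yields a fitted dose response curve; inconclusive = no clear call, values can overlap the other calls; inactive = no blocking at any dose or no curve.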

Molecular target: High affinity choline transporter 1 (Homo sapiens) (UniProt Q9GZV3)
Assay: CHT inhibitors, dose response, cell-based, 10-point CRC, membrane potential dye (AID 588401)
Details: HEK293-CHT, choline-induced depolarization, at 25 µM (top of the series)

High affinity choline transporter 1 (Homo sapiens), sequence (Q9GZV3 whole entry, looked up): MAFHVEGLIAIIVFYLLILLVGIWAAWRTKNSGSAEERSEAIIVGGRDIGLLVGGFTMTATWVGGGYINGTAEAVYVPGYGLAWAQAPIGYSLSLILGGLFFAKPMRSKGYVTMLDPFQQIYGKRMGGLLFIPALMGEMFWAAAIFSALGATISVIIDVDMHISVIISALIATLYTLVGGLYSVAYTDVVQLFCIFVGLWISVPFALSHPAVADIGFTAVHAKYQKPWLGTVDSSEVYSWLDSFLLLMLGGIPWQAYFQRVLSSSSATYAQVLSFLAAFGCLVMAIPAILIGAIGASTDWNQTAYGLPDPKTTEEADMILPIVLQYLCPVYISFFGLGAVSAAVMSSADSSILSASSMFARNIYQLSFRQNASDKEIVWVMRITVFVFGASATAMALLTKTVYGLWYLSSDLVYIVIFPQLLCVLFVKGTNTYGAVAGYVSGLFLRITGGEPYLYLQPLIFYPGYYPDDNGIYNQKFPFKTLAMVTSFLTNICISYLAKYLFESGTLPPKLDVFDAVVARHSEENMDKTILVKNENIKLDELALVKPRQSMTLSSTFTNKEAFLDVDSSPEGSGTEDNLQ

Row | Structure (SMILES) | inhibition (negative values = inhibition)
1 | C=CCn1c(O)c(C(CC)=NC(C)c2ccccc2)c(=O)[nH]c1=O (centres undefined) | inactive

Same assay, conditions: HEK293-CHT, choline-induced depolarization, at 25 µM (top of the series), cells express LV-AA mutant CHT

Row | Structure (SMILES) | inhibition (negative values = inhibition)
2 | CC1(C(=O)N2CCC(CC3CC(c4ccc(Cl)cc4)=NO3)(C(=O)NCC3CCCCC3)CC2)CC1 (centres undefined) | inactive
3 | O=C(NC1CCCCC1)C(c1ccc2ncccc2c1)N(Cc1ccccc1)C(=O)c1ccc2c(c1)OCCO2 (centres undefined) | inactive
4 | Oc1ccc(C[C@H]2NCCc3cc(O)c(O)cc32)cc1O | inactive
5 | O=[N+]([O-])c1cc(Cc2ccccc2)cc(C=Nc2ccc(N3CCOCC3)cc2)c1O | inactive
6 | COc1ccc(C/C(O)=C(\C#N)c2nc3ccccc3s2)cc1 | inactive
7 | O=C(c1c(O)c2ccccc2oc1=O)C1CCCCC1 | inactive
8 | O=C1ON=C(c2ccccc2)/C1=C/c1ccc(O)c(O)c1 | inactive
9 | CCOC(=O)c1sc(NC(=O)CCN2C(=O)c3cccc([N+](=O)[O-])c3C2=O)c(C(=O)OCC)c1C | inactive
10 | CCCn1nc2cc(C(=O)NCc3ccc(C)cc3)ccc2c1OCC | inactive
11 | O=C1NC(c2ccccc2)=C(c2ccc3ccccc3n2)C(c2ccncc2)N1 (centres undefined) | inactive
12 | O=S(=O)(c1ccccc1F)N1CCN(CCc2ccccc2)CC1 | inactive
13 | COCCCNC(=O)c1ccc(OC)c(OC2CCN(C(C)C)CC2)c1 | inactive
14 | CC(/C=C1\SC(=S)N(NS(=O)(=O)c2ccccc2)C1=O)=C\c1ccccc1 | inactive
15 | Cc1cc(Cl)ccc1OCCCC(=O)N1CCN(C(=O)c2ccco2)CC1 | inactive
16 | CC(/C=N/NC(=O)c1cc(-c2ccncc2)nc2ccccc12)=C\c1ccco1 | inactive
17 | C/C(=N/NC(=O)c1cc(Cl)ccc1O)C12CC3CC(CC(C3)C1)C2 | inactive
18 | CN(CCC#N)C(=O)COC(=O)c1ccccc1C(=O)c1ccc(Cl)c([N+](=O)[O-])c1 | inactive
19 | Cc1cc(OC(C)C(=O)Nc2ccc(S(=O)(=O)Nc3onc(C)c3C)cc2)cc(C)c1Cl (centres undefined) | inactive
20 | Cc1cc(-c2ccccc2)n(-c2ccc(C(=O)N3CCN(c4ncccn4)CC3)cc2)n1 | inactive
21 | COc1cc(/C=C2/C(=O)ON=C2c2ccccc2)ccc1O | inactive
22 | CCN(Cc1ccccc1)S(=O)(=O)c1cc(C(=O)NC2CCCCCC2)ccc1OC | inactive
23 | COc1cc(/C=C2\S/C(=N/S(=O)(=O)Cc3ccccc3)NC2=O)c([N+](=O)[O-])cc1OC | inactive
24 | C=C(C)CSc1nnc(CCCCCNC(=O)OC(C)(C)C)o1 | inactive
25 | CCCNc1nc2c(c(=O)n(C)c(=O)n2C)n1CCC(C)C | inactive
26 | O=c1c2cc(Br)ccc2nc(-c2ccc(Cl)cc2)n1O | inactive
27 | CCN(CC(=O)Nc1cccc(OC)c1)c1ncnc2sc(C)c(C)c12 | inactive
28 | Cc1c(C(=O)OC(C)C)sc(NC(=O)c2cccnc2)c1C#N | inactive

Same assay, conditions: HEK293-CHT, choline-induced depolarization, cells express LV-AA mutant CHT

Row | Structure (SMILES) | IC50 [µM]
29 | CCCn1nc(NS(=O)(=O)c2cccc3nonc23)c2cc3cccc(C)c3nc21 | 3.55
